Experimental data: US9956157B2, “Composition containing fucosterol for skin whitening or moisturizing” (INDUSTRY-ACADEMIC COOPERATION FOUNDATION, YONSEI UNIVERSITY, priority 2014, dated 2018)

Legend:
Assay type in all cases: cell-based
B16F10 melanoma cells = experiment: Melanin generation in α-MSH-stimulated B16F10 melanoma cells (absorbance 405 nm); settings: 200 nM α-MSH, fucosterol 5, 10, 20 μM, 72 hrs, P<0.01, FIG. 2
Protocol: B16F10 melanoma cells were incubated in a DMEM medium including 10% fetal bovine serum and then added in a 6-well plate with 2.5×10^5 cell/mL (the final volume of 3 mL). After being incubated for 24 hrs, the medium was removed and fucosterol which was dissolved in the DMEM medium including 200 nM α-MSH was treated at 5, 10, and 20 μM concentrations, respectively. After 72 hrs, the incubated medium was removed from the 6-well plate and 0.25% trypsin-ethylenediaminetetraacetate (trypsin-EDTA) solution was treated to collect a cell pellet, and the cell pellet was transferred to a 1.5 mL tube and centrifuged for 10 min at 10,000 rpm to remove a supernatant. […] This solution was diluted with phosphate buffered saline (PBS) and then the melanin content in a sample treatment group was calculated by measuring absorbance at 405 nm by an ELISA reader (Versa max, Sunnyvale, Calif., USA). In this case, cells without the fucosterol were set to a control group and the melanin generation degree was measured in the control group and cells treated with the fucosterol. According to Equation 1 below, the melanin content compared with the control group was calculated and the result was illustrated in FIG. 2. Melanin content (%) compared with control group=absorbance of each test material/absorbance of control group×100 [Equation 1]

tyrosinase = experiment: Tyrosinase protein expression (western blot) in B16F10 melanoma cells; settings: 200 nM α-MSH, fucosterol 5 and 20 μM, 24 hrs, FIG. 5
Protocol: B16F10 melanoma cells were incubated in a DMEM medium including 10% fetal bovine serum and then added in a 6-well plate with 2.5×10^5 cell/mL (the final volume of 3 mL). After being incubated for 24 hrs, the medium was removed and fucosterol which was dissolved in the DMEM medium including 200 nM α-MSH was treated at 5 and 20 μM of concentrations, respectively. The cells after 24 hrs were lysed with a NP40 buffer solution including proteinase inhibitor cocktail and the protein amount extracted from the cells was quantified by using a Bio-Rad protein assay dye (Bradford) reagent. The quantified protein was boiled for 5 min and isolated by electrophoresis with 10% SDS-PAGE to transfer the isolated proteins to a nitrocellular membrane. A primary antibody of tyrosinase was diluted in 2.5% bovine serum albumin at a ratio of 1:1000 and reacted with the protein transferred to the nitrocellular membrane for 20 hrs at room temperature. The primary antibody was reacted and the nitrocellular membrane was washed by using tris-buffer saline tween 20 (TBST) three times for 10 min. […] As the measured result, the protein expression of tyrosinase was verified and the loading amount of the protein was constant by α-tubulin.

involucrin = experiment: Involucrin mRNA expression (RT-PCR) in HaCaT human keratinocytes; settings: HaCaT cells, fucosterol 5, 10, 20 μM, 24 hrs, FIG. 9
Protocol: HaCaT human keratinocytes were incubated in a Dulbecco's Modified Eagle's Media (DMEM) medium including 10% fetal bovine serum and then put in a 6-well plate with 2×10^5 cell/ml (the final volume of 3 ml). After being incubated for 24 hrs, the medium was removed and fucosterol which was dissolved in the DMEM medium was treated at 5, 10, and 20 μM concentrations, respectively. After 24 hrs, the total RNA was collected by using a TRIzol reagent (Invitrogen, Carlsbad, Calif., USA) and reverse-transcribed and then a reverse transcription-polymerase chain reaction (RT-PCR) analysis was performed below. First, for cDNA synthesis, the RNA was reverse-transcribed by reverse transcriptase. The RT-PCR was performed by specific primers below and the result was illustrated in FIG. 9.

[1] = system: TRP-2 (tyrosinase-related protein 2); experiment: TRP-2 protein expression (western blot) in B16F10 melanoma cells; settings: 200 nM α-MSH, fucosterol 5 and 20 μM, 24 hrs, FIG. 6
Protocol: (§1) B16F10 melanoma cells were incubated in a DMEM medium including 10% fetal bovine serum and then added in a 6-well plate with 2.5×10^5 cell/mL (the final volume of 3 mL). After being incubated for 24 hrs, the medium was removed and fucosterol which was dissolved in the DMEM medium including 200 nM α-MSH was treated at 5 and 20 μM of concentrations, respectively. The cells after 24 hrs were lysed with a NP40 buffer solution including proteinase inhibitor cocktail and the protein amount extracted from the cells was quantified by using a Bradford reagent. The quantified protein was boiled for 5 min and isolated by electrophoresis with 10% SDS-PAGE to transfer the isolated proteins to a nitrocellular membrane. A primary antibody of […] and […] was diluted in 2.5% bovine serum albumin at a ratio of 1:1000 and reacted with the protein transferred to the nitrocellular membrane for 20 hrs at room temperature. The primary antibody was reacted and then the nitrocellular membrane was washed three times by using the TBST for 10 min. […] As the measured result, the protein expression of […] and […] was verified and it was shown that the loading amount of the protein was constant by α-tubulin.

[2] = system: TRP-1 (tyrosinase-related protein 1); experiment: TRP-1 protein expression (western blot) in B16F10 melanoma cells; settings: 200 nM α-MSH, fucosterol 5 and 20 μM, 24 hrs, FIG. 6
Protocol: as §1

SMILES: C/C=C(\CC[C@@H](C)[C@H]1CC[C@H]2[C@@H]3CC=C4C[C@@H](O)CC[C@]4(C)[C@H]3CC[C@]12C)C(C)C [fucosterol]
- inhibitory effect on melanin generation (B16F10 melanoma cells): very excellent inhibitory effect
- protein expression of tyrosinase (tyrosinase): reduced
- mRNA expression of involucrin (involucrin): increased
- protein expression of TRP-2 [1]: reduced
- protein expression of TRP-1 [2]: reduced
